Data published in patent publication US6410585B1, “Inhibitors of protein tyrosine phosphatase” (priority 1997, dated 2002).
Where “and” joins values, the source holds several entries; their conditions need not be identical. Equal values may be shown once.

Biological target: T1, rat PTP1 (Rattus norvegicus, UniProt P20417)
T1 construct: a C-terminal truncation of rat PTP1 (amino acid residues 1-322); GST (N, cleaved yes); made in house; host or cells: E. coli strain TG-1 (pGEX-2T)
T1 sequence (P20417 1-322): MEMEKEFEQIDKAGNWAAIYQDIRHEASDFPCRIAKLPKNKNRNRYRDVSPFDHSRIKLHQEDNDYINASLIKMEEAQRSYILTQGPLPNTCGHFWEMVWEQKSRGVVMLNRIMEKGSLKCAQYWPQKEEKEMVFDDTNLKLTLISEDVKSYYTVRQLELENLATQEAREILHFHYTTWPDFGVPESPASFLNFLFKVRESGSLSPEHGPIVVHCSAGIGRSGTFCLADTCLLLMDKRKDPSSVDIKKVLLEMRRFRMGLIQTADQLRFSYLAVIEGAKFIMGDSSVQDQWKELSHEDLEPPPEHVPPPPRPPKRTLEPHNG
Assay: PTP1 assay, pNPP hydrolysis (rate of change in A405)
Type: biochemical
Conditions: for inhibition at 1 µM / inhibition at 10 µM / inhibition at 100 µM / % Inhibition: inhibition of pNPP-hydrolysis; for inhibition at 1 µM / inhibition at 10 µM / inhibition at 100 µM: read-out: % Inhibition; for Ki: calculated from IC50-values obtained from a dose-response curve using the inhibition assay; for PTP1 Inhib % Inhib: pNPP hydrolysis, Table 1
From the text: PTP1 Assays: A construct, which consisted of a C-terminal truncation of rat PTP1 (amino acid residues 1-322) (cloned from a rat brain library) with an N-terminal glutathione S-transferase (GST) tag and an adjacent thrombin cleavage site, was inserted into vector plasmid pGEX-2T and transformed into E. coli strain TG-1 under the control of a lac promoter (K. L. Guan and J. E. Dixon (1991) Eukaryotic proteins expressed in Escherichia coli: an improved thrombin cleavage and purification procedure of fusion proteins with glutathione S-transferase. Analyt. Biochem. 192: 262-267). The GST-fusion protein was purified on a glutathione agarose affinity column, the GST tag was cleaved with thrombin, and the active enzyme was recovered for use in an assay to identify PTP inhibitors.
PTP1 activity is measured using either p-nitrophenol phosphate (pNPP) or a triphosphopeptide (that matches residues 1142 through 1153 of the β-subunit and the insulin receptor) as substrate in a 96-well microtiter plate format. An assay pH of 7.2 is used for standard assays (measured 405=9800 at pH 7.2).
Standard assays are conducted at room temperature in a total volume of 0.2 ml that contains Hepes buffer (50 mM, pH 7.2), NaCl (50 mM), EDTA (1 mM), DTT (1 mM), bovine serum albumin (1 mg/ml), pNPP (1 mM) and PTP1 (35 ng/ml). Compounds (2 μl of 10 mM solutions) are pipetted into wells of microtiter plates followed by 198 μl of premixed reaction mix (with PTP1 and pNPP added immediately before use). The rate of change in A405 is recorded for 60 min. Two wells on each plate contain DMSO controls and two wells contain sodium orthovanadate (1 mM) which inhibits PTP1-catalyzed hydrolysis of pNPP completely. Data are expressed as percent inhibition relative to the average of the DMSO controls measured on the same microtiter plate.

SMILES	inhibition at 1 µM (compound concentration 1 μM)	inhibition at 10 µM (compound concentration 10 μM)	inhibition at 100 µM (compound concentration 100 μM)	also measured
O=C(O)COc1ccc(C[C@H](NC(=O)c2ccoc2)C(=O)NCCCCc2ccccc2)cc1C(=O)O [Example 154-15, 2-(carboxymethoxy)-5-{(2S)-2-(3-furoylamino)-3-oxo-3-[(4-phenylbutyl)amino]propyl}benzoic acid]	80%	31%	97%	–
O=C(O)COc1ccc(C[C@H](NC(=O)c2ccccc2)C(=O)NCCCCc2ccc(Cl)cc2)cc1C(=O)O [Example 154-19, 5-((2S)-2-(benzoylamino)-3-{[4-(4-chlorophenyl)butyl]amino}-3-oxopropyl)-2-(carboxymethoxy)benzoic acid]	40%	55%	98%	–
O=C(O)COc1ccc(C[C@H](NC(=O)c2ccc(Cl)cc2)C(=O)NCCCCc2ccc(Cl)cc2)cc1C(=O)O [Example 154-20, 2-(carboxymethoxy)-5-((2S)-2-[(4-chlorobenzoyl)amino]-3-{[4-(4-chlorophenyl)butyl]amino}-3-oxopropyl)benzoic acid]	27%	79%	98%	–
O=C(O)COc1ccc(C[C@H](NC(=O)c2ccoc2)C(=O)NCCCCc2ccc(Cl)cc2)cc1C(=O)O [Example 154-26, 2-(carboxymethoxy)-5-[(2S)-3-{[4-(4-chlorophenyl)butyl]amino}-2-(3-furoylamino)-3-oxopropyl]benzoic acid]	30%	78%	97%	–
COc1ccc(CCCCNC(=O)[C@H](Cc2ccc(OCC(=O)O)c(C(=O)O)c2)NC(=O)c2ccc(Cl)nc2)cc1 [Example 154-34, 2-(carboxymethoxy)-5-((2S)-2-{[(6-chloro-3-pyridinyl)carbonyl]amino}-3-{[4-(4-methoxyphenyl)butyl]amino}-3-oxopropyl)benzoic acid]	26%	77%	96%	–
O=C(O)COc1ccc(C[C@H](NS(=O)(=O)c2ccc(F)cc2F)C(=O)NCCCCc2ccc(Cl)cc2)cc1C(=O)O [Example 156-1, 2-(carboxymethoxy)-5-((2S)-3-{[4-(4-chlorophenyl)butyl]amino}-2-{[(2,4-difluorophenyl)sulfonyl]amino}-3-oxopropyl)benzoic acid]	18%	69%	95%	–
O=C(O)COc1ccc(C[C@H](NS(=O)(=O)/C=C/c2ccccc2)C(=O)NCCCCc2ccc(Cl)cc2)cc1C(=O)O [Example 156-7, 2-(carboxymethoxy)-5-[(2S)-3-{[4-(4-chlorophenyl)butyl]amino}-3-oxo-2-({[(E)-2-phenylethenyl]sulfonyl}amino)propyl]benzoic acid]	18%	69%	95%	–
O=C(O)COc1ccc(C[C@H](NS(=O)(=O)c2ccccc2)C(=O)NCCCOc2ccccc2)cc1C(=O)O [Example 156-16, 2-(carboxymethoxy)-5-{(2S)-3-oxo-3-[(3-phenoxypropyl)amino]-2-[(phenylsulfonyl)amino]propyl}benzoic acid]	20%	72%	95%	–
CC(C)(C)OC(=O)N[C@@H](Cc1ccccc1)C(=O)N[C@@H](Cc1ccc(OCC(=O)O)c(C(=O)O)c1)C(=O)NCCCc1ccccc1 [Example 157-1, 5-{(2S)-2-({(2S)-2-[(tert-Butoxycarbonyl)amino]-3-phenylpropanoyl}amino)-3-oxo-3-[(3-phenylpropyl)amino]propyl}-2-(carboxymethoxy)benzoic Acid]	39%	84%	97%	–
CC(C)(C)OC(=O)N[C@@H](Cc1ccccc1)C(=O)N[C@@H](Cc1ccc(OCC(=O)O)c(C(=O)O)c1)C(=O)NCCCCc1ccccc1 [Example 157-2, 5-{(2S)-2-({(2S)-2-[(tert-Butoxycarbonyl)amino]-3-phenylpropanoyl}amino)-3-oxo-3-[(4-phenylbutyl)amino]propyl}-2-(carboxymethoxy)benzoic Acid]	64%	93%	98%	–
CC(C)(C)OC(=O)N[C@@H](Cc1ccccc1)C(=O)N[C@@H](Cc1ccc(OCC(=O)O)c(C(=O)O)c1)C(=O)NCCO [Example 157-3, 5-{(2S)-2-({(2S)-2-[(tert-Butoxycarbonyl)amino]-3-phenylpropanoyl}amino)-3-[(2-hydroxyethyl)amino]-3-oxopropyl}-2-(carboxymethoxy)benzoic]	–	–	–	% Inhibition (compound concentration 1 μM): 22%; % Inhibition (compound concentration 10 μM): 72%; % Inhibition (compound concentration 100 μM): 94%
CC(C)(C)OC(=O)N[C@@H](Cc1ccccc1)C(=O)N[C@H](Cc1ccc(OCC(=O)O)c(C(=O)O)c1)C(=O)NCCCN1CCCC1=O [Example 157-12, 5-((2R)-2-({(2S)-2-[(tert-Butoxycarbonyl)amino]-3-phenylpropanoyl}amino)-3-oxo-3-{[3-(2-oxo-1-pyrrolidinyl)propyl]amino}propyl)-2-(carboxymethoxy)benzoic Acid]	27%	76%	95%	–
CC(C)(C)OC(=O)N[C@@H](Cc1ccccc1)C(=O)N[C@@H](Cc1ccc(OCC(=O)O)c(C(=O)O)c1)C(=O)NCc1cccnc1 [Example 157-14, 5-{(2S)-2-({(2S)-2-[(tert-Butoxycarbonyl)amino]-3-phenylpropanoyl}amino)-3-oxo-3-[(3-pyridinylmethyl)amino]propyl}-2-(carboxymethoxy)benzoic Acid]	20%	67%	94%	–
CC(C)OCCCNC(=O)[C@H](Cc1ccc(OCC(=O)O)c(C(=O)O)c1)NC(=O)[C@H](Cc1ccccc1)NC(=O)OC(C)(C)C [Example 157-16, 5-{(2S)-2-({(2S)-2-[(tert-Butoxycarbonyl)amino]-3-phenylpropanoyl}amino)-3-[(3-isopropoxypropyl)amino]-3-oxopropyl}-2-(carboxymethoxy)benzoic Acid]	38%	83%	97%	–
CC(C)(C)OC(=O)N[C@@H](Cc1ccccc1)C(=O)N[C@@H](Cc1ccc(OCC(=O)O)c(C(=O)O)c1)C(=O)NCCCO [Example 157-21, 5-{(2S)-2-({(2S)-2-[(tert-Butoxycarbonyl)amino]-3-phenylpropanoyl}amino)-3-[(3-hydroxypropyl)amino]-3-oxopropyl}-2-(carboxymethoxy)benzoic Acid]	24%	73%	95%	–
CC(C)(C)OC(=O)N[C@@H](Cc1ccccc1)C(=O)N[C@@H](Cc1ccc(OCC(=O)O)c(C(=O)O)c1)C(=O)NOCCCc1ccccc1 [Example 157-28, 5-{(2S)-2-({(2S)-2-[(tert-Butoxycarbonyl)amino]-3-phenylpropanoyl}amino)-3-oxo-3-[(3-phenylpropoxy)amino]propyl}-2-(carboxymethoxy)benzoic Acid]	–	–	–	Ki: 400 nM
CCCCCNC(=O)[C@H](Cc1ccc(OCC(=O)O)c(C(=O)O)c1)NC(=O)[C@H](Cc1ccccc1)NC(=O)Oc1ccccc1 [Example 158, 2-(Carboxymethoxy)-5-[(2S)-3-oxo-3-(pentylamino)-2-({(2S)-2-[(phenoxycarbonyl)amino]-3-phenylpropanoyl}amino)propyl]benzoic Acid]	43%	85%	97%	Ki: 870 nM
CCCCCNC(=O)C(Cc1ccc(OC(COO)COO)cc1)NC(=O)CCC(=O)O (centres unmarked) [drawing 81]	–	–	–	PTP1 Inhib % Inhib (Conc 1 uM): 1%; PTP1 Inhib % Inhib (Conc 10 uM): 25%; PTP1 Inhib % Inhib (Conc 100 uM): 81% and 76%
CCCCCNC(=O)C(Cc1ccc(OC(COO)COO)cc1)NC(=O)CCC(=O)O (centres unmarked) [drawing 101]	–	–	–	PTP1 Inhib % Inhib (Conc 1 uM): 3%; PTP1 Inhib % Inhib (Conc 10 uM): 4%; PTP1 Inhib % Inhib (Conc 100 uM): 39%
